Measurements reported in ChEMBL document CHEMBL5543101, “Identification of 3-aryl-5-methyl-isoxazole-4-carboxamide derivatives and analogs as novel HIF-2α agonists through docking-based virtual screening and structural modification” (Eur J Med Chem, 2024).

How the values were obtained:
[1] = molecular target: Endothelial PAS domain-containing protein 1 (Homo sapiens, UniProt Q99814)
Description: Agonist activity at HIF-2alpha in human 786-0 cells assessed as increase in VEGF secretion incubated for 20 hrs by ELISA

[2] = MRT (0 to t) in male Sprague-Dawley rat at 5 mg/kg, po measured after 32 hrs by LC-MS/MS analysis; conditions: in vivo
[3] = Half-life in male Sprague-Dawley rat at 5 mg/kg, po measured after 32 hrs by LC-MS/MS analysis; conditions: in vivo
[4] = Clearance in male Sprague-Dawley rat at 5 mg/kg, po measured after 32 hrs by LC-MS/MS analysis; conditions: in vivo
[5] = MRT (0 to t) in male Sprague-Dawley rat at 0.5 mg/kg, iv measured after 32 hrs by LC-MS/MS analysis; conditions: in vivo
[6] = Half-life in male Sprague-Dawley rat at 0.5 mg/kg, iv measured after 32 hrs by LC-MS/MS analysis; conditions: in vivo
[7] = Clearance in male Sprague-Dawley rat at 0.5 mg/kg, iv measured after 32 hrs by LC-MS/MS analysis; conditions: in vivo
[8] = Volume of distribution at steady state in male Sprague-Dawley rat at 0.5 mg/kg, iv measured after 32 hrs by LC-MS/MS analysis; conditions: in vivo
in vivo [9] = conditions: male, Sprague-Dawley, rat, po, 5 mg/kg
Description: AUC (0 to t) in male Sprague-Dawley rat at 5 mg/kg, po measured after 32 hrs by LC-MS/MS analysis

in vivo [10] = conditions: male, Sprague-Dawley, rat, po, 5 mg/kg; remark: listed apart in the source
Description: Tmax in male Sprague-Dawley rat at 5 mg/kg, po measured after 32 hrs by LC-MS/MS analysis

in vivo [11] = conditions: male, Sprague-Dawley, rat, po, 5 mg/kg; remark: listed apart in the source
Description: Cmax in male Sprague-Dawley rat at 5 mg/kg, po measured after 32 hrs by LC-MS/MS analysis

in vivo [12] = conditions: male, Sprague-Dawley, rat, po, 5 mg/kg; remark: listed apart in the source
Description: Oral bioavailability in male Sprague-Dawley rat at 5 mg/kg measured after 32 hrs by LC-MS/MS analysis

in vivo [13] = conditions: male, Sprague-Dawley, rat, iv, 0.5 mg/kg
Description: AUC (0 to t) in male Sprague-Dawley rat at 0.5 mg/kg, iv measured after 32 hrs by LC-MS/MS analysis

in vivo [14] = conditions: male, Sprague-Dawley, rat, iv, 0.5 mg/kg; remark: listed apart in the source
Description: Tmax in male Sprague-Dawley rat at 0.5 mg/kg, iv measured after 32 hrs by LC-MS/MS analysis

in vivo [15] = conditions: male, Sprague-Dawley, rat, iv, 0.5 mg/kg; remark: listed apart in the source
Description: Cmax in male Sprague-Dawley rat at 0.5 mg/kg, iv measured after 32 hrs by LC-MS/MS analysis

Endothelial PAS domain-containing protein 1, sequence (Q99814 whole entry, the tested form may be a part): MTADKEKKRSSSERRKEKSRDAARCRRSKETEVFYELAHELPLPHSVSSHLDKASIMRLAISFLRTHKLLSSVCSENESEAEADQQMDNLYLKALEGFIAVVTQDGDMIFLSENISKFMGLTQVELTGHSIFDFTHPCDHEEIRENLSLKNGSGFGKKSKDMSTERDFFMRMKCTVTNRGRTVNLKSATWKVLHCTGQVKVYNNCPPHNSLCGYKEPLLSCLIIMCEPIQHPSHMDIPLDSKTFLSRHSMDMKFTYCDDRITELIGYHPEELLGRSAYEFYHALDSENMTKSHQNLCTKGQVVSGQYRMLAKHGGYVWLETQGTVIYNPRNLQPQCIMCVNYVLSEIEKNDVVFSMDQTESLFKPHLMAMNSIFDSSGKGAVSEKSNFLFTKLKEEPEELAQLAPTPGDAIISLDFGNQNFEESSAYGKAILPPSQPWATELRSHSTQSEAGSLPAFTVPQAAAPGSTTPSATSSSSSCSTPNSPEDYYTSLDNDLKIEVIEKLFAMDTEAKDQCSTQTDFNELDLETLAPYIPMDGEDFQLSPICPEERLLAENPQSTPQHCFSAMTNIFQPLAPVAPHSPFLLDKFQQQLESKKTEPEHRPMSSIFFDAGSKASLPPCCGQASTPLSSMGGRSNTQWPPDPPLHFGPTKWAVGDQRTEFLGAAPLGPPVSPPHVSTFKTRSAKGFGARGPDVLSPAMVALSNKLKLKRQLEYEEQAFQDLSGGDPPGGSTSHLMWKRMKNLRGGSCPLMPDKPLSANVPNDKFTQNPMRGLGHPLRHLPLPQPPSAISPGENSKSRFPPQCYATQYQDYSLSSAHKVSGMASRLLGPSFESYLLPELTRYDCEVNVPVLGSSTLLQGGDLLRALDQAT

## Cc1onc(-c2ccccc2Cl)c1C(=O)Nc1cc(C(F)(F)F)ccn1
[1]
  EC50: 5.62 µM

## Cc1onc(-c2ccccc2Cl)c1C(=O)N1CCOCC1
[1]
  EC50: 9.86 µM

## Cc1onc(-c2ccccc2F)c1C(=O)Nc1cccc(C(F)(F)F)c1
[1]
  EC50: 10 µM

## Nc1ncc(C(=O)Nc2cccc(C(F)(F)F)c2)c(-c2ccccc2Cl)n1
[1]
  EC50: 5.01 µM

## Cc1onc(-c2ccccc2Cl)c1C(=O)Nc1cccc(C#N)c1
[1]
  EC50: 6.21 µM

## O=C(Nc1cccc(C(F)(F)F)c1)c1cn[nH]c1-c1ccccc1Cl
[2]
  MRT last at 32 h: 4.6 h
[3]
  half-life at 32 h: 5.09 h
[4]
  CL/F at 32 h: 8.83 mL/min/kg
[5]
  MRT last at 32 h: 1.54 h
[6]
  half-life at 32 h: 2.53 h
[7]
  clearance at 32 h: 5.33 mL/min/kg
[8]
  Vd at 32 h: 0.53 L/kg
[1]
  EC50: 1.78 µM
In vivo [9]
  AUC(0-t) at 32 h: 11100 ng·h/mL
In vivo [10]
  Tmax at 32 h: 1.33 h
In vivo [11]
  Cmax at 32 h: 1290 ng/mL
In vivo [12]
  bioavailability at 32 h: 68.7%
In vivo [13]
  AUC(0-t) at 32 h: 1610 ng·h/mL
In vivo [14]
  Tmax at 32 h: 1.8 min
In vivo [15]
  Cmax at 32 h: 1620 ng/mL

## Cc1onc(-c2ccccc2OC(F)F)c1C(=O)Nc1cccc(C(F)(F)F)c1
[2]
  MRT last at 32 h: 7.79 h
[1]
  EC50: 2.29 µM
In vivo [9]
  AUC(0-t) at 32 h: 194 ng·h/mL
In vivo [10]
  Tmax at 32 h: 1.5 h
In vivo [11]
  Cmax at 32 h: 35.9 ng/mL
In vivo [12]
  bioavailability at 32 h: 7.02%
In vivo [13]
  AUC(0-t) at 32 h: 278 ng·h/mL
In vivo [14]
  Tmax at 32 h: 1.8 min
In vivo [15]
  Cmax at 32 h: 285 ng/mL
